From patent US11007237B2, “Agent for suppressing carbohydrate breakdown and absorption” (KOHAKU BIO TECHNOLOGY CO., LTD., priority 2017, dated 2021)
Each block holds one compound with its values, some of them ahead of it.

How the values were obtained:
Caco-2 cells = experiment: Suppression test for glucose uptake by the intestinal epithelial-like cells (Caco-2 cells), Transwell glucose permeation; assay type: cell-based, human; settings: for Glucose permeability (%) (n = 3): apical side, 2 hours, control = 100
Method: (§1) The extract obtained can be examined for action to suppress α-glucosidase activity, for example, by the following method. The extract is added to human colon cancer-derived cells (hereinafter referred to as Caco-2 cells) and the cells are cultured. The cultured cells are collected. With a crude enzyme solution thereof, sucrose or maltose serving as substrate is allowed to react. The amount of glucose generated is quantified by an enzyme method using glucose oxidase. An action to inhibit glucose uptake can be examined by the following method. To Caco-2 cells differentiated into the intestinal epithelial-like, glucose and the extract were simultaneously added. The amount of glucose taken in the cells or permeated through the cells is quantified by an enzyme method using glucose oxidase.
The test herein was carried out in accordance with the method of Konishi et al. (Konishi et al., Biosci. Biotechnol. Biochem., 67(4), 856-862, 2003). In DMEM culture medium, Caco-2 cells were suspended. The suspension was added in Transwell-COL of 12 mm diameter and 0.4 μm in pore size (manufactured by Corning Incorporated) (hereinafter referred to as Transwell) in a ratio of 1.0×10^5 cells/cm^2 to seed the cells. The cells were cultured under 95% air-5% carbon dioxide gas at 37° C. for 3 weeks while exchanging the medium at intervals of 2 to 3 days.
After an intercellular electrical resistance (TER value) was confirmed to be 350 Ω·cm^2 or more by Millicell ERS-2 resistance measurement system (manufactured by Merck Millipore), the amber extract obtained in Production Example 1 was dissolved in DMSO on the apical side so as to obtain a final concentration of 0.2, 1 and 2 mg/mL, and mixed with a solution obtained by dissolving D(+)-glucose in PBS (+) in a concentration of 0.5% (hereinafter referred to as the 0.5% glucose solution) (DMSO final concentration: 1%). The resultant mixed solutions each were added in an amount of 500 μL. DMSO was added to a 0.5% glucose solution so as to obtain a DMSO final concentration of 1% and treated. This was used as a control. Phlorizin n-hydrate derived from an apple (hereinafter referred to as phlorizin) was dissolved in DMSO so as to obtain a final concentration of 1 mg/mL and mixed with the 0.5% glucose solution. The resultant DMSO solution (DMSO final concentration: 1%) was treated and used as a positive control. Further, succinic acid was subjected to a glucose permeation suppression test in the amount corresponding to that contained in the amber extract. More specifically, the content of succinic acid in the amber extract obtained in Production Example 1 was calculated by use of analysis/preparative high performance liquid chromatographic apparatus and Fourier transform infrared spectrophotometer. As a result, the content rate of succinic acid was confirmed to be 2% or less. Then, succinic acid was dissolved in DMSO so as to obtain a final concentration of 0.02, 0.05 and 0.1 mg/mL and mixed with PBS (+)(DMSO final concentration: 1%) and treated. At each basolateral side, 500 μL of PBS (+) was added. These transwells were subjected to culture carried out under 95% air −5% carbon dioxide gas at 37° C. for 2 hours. Thereafter the amount of glucose permeated on the basolateral side was quantified by use of glucose CII test Wako. The glucose permeability of the control sample was regarded as 100 and the relative changes for the samples containing a test substance were calculated. After the test, the TER value was confirmed to be 350 Ω·cm^2 or more.

maltase = experiment: Suppression test for maltase activity in Caco-2 cells; assay type: cell-based, human; settings: for Maltase activity (%) (n = 3): Caco-2 cells treated 7 days, control = 100
Method: as §1
(§2) The test herein was carried out with reference to the method of OGAWA et al. (N. Ogawa et al., the Journal of Nutrition, 130: 507-513, 2000).
To Dulbecco's modified eagle medium (DMEM)(manufactured by Thermo Fisher Scientific K.K.), 10% fetal bovine serum (hereinafter referred to as FBS)(manufactured by Thermo Fisher Scientific K.K.), a 1% antibacterial agent (Penicillin-Streptomycin-L-Glutamine) (manufactured by FUJIFILM Wako Pure Chemical Corporation) and a 1% non-essential amino acid mixture (MEM Non-Essential Amino Acids) (manufactured by Thermo Fisher Scientific K.K.) were added to prepare a culture solution (hereinafter referred to as DMEM culture medium). In the DMEM culture solution (medium), Caco-2 cells were suspended. The suspension was added in 24-well plates (manufactured by TPP) in a ratio of 1.0×10^4 cells/cm^2 to seed the cells. The cells were cultured under 95% air/5% carbon dioxide gas at 37° C. for 8 to 10 days until the cultured cells reached confluency while exchanging the medium at intervals of 2 to 3 days. […] More specifically, the content of succinic acid in the amber extract obtained in Production Example 1 was calculated by analysis/preparative high performance liquid chromatographic apparatus and a Fourier transform infrared spectrophotometer. […]
(§3) Cells were collected with a lysis buffer (0.1 M phosphate buffer (pH6.8), 0.5% TritonX-100), allowed to stand still on ice for 20 minutes and centrifuged (10,000×g) at 4° C. for 30 minutes, and then, the supernatant was collected. […] Thereafter, the amount of the glucose generated was quantified in accordance with an enzyme method using glucose CII test Wako (manufactured by FUJIFILM Wako Pure Chemical Corporation). The sucrase activity and maltase activity were calculated, respectively, based on the production amount of glucose.

sucrase = molecular target: T1, sucrase (Homo sapiens, UniProt P14410); experiment: Suppression test for sucrase activity in Caco-2 cells; assay type: cell-based
T1 construct: Cells were collected with a lysis buffer (0.1 M phosphate buffer (pH6.8), 0.5% TritonX-100); endogenous in cells; host or cells: Caco-2 cells (Triton X-100 lysate supernatant, crude enzyme)
T1 sequence (P14410 whole entry): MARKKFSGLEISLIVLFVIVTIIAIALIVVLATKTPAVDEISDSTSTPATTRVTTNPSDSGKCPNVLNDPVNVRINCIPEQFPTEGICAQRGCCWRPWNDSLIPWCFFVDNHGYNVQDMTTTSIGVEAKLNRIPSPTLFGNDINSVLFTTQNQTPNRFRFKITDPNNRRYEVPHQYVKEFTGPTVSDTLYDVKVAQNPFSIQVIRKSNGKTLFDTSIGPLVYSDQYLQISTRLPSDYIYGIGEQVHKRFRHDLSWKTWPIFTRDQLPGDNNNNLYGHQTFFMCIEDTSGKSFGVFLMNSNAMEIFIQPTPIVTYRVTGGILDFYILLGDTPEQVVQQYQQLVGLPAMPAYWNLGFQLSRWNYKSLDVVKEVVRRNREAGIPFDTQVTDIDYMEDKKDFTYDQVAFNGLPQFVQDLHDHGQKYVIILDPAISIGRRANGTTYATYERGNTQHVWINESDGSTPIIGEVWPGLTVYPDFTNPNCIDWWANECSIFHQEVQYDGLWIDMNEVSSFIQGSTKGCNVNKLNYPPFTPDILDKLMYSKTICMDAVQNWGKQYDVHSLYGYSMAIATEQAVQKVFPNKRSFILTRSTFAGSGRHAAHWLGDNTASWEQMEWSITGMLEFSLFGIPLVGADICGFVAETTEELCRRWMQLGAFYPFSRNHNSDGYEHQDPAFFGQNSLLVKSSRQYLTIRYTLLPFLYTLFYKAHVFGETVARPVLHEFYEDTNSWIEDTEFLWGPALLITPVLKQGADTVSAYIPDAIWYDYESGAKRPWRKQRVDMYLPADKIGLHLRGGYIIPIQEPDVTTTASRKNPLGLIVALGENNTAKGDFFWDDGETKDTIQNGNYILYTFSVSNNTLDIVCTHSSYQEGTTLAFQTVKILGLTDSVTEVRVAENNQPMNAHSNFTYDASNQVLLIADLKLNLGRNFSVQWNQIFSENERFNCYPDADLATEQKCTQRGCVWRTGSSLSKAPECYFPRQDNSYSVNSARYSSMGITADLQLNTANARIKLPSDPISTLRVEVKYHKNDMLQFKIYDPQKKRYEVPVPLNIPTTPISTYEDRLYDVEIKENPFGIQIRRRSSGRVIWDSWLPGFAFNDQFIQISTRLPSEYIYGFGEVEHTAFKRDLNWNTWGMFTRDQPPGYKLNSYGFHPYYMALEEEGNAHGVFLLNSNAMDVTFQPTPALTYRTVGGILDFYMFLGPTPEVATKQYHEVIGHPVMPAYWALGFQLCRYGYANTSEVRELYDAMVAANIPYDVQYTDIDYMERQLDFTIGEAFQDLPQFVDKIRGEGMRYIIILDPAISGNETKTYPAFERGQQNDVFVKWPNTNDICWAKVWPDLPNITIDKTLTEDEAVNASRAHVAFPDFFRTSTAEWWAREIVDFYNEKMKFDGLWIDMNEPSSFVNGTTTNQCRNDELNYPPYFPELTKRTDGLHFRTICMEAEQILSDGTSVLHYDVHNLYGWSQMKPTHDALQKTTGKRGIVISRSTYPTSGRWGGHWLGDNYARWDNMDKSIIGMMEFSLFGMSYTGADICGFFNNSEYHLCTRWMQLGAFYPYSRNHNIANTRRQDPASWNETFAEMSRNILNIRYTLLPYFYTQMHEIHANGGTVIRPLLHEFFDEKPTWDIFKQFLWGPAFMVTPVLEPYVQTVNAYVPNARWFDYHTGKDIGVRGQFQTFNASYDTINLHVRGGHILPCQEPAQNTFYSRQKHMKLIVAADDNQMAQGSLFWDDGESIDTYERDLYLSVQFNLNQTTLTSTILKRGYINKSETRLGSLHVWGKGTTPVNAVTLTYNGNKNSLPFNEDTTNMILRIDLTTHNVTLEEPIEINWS
Method: as §1, §2
To Dulbecco's modified eagle medium (DMEM)(manufactured by Thermo Fisher Scientific K.K.), 10% fetal bovine serum (hereinafter referred to as FBS)(manufactured by Thermo Fisher Scientific K.K.), a 1% antibacterial agent (Penicillin-Streptomycin-L-Glutamine) (manufactured by FUJIFILM Wako Pure Chemical Corporation) and a 1% non-essential amino acid mixture (MEM Non-Essential Amino Acids) (manufactured by Thermo Fisher Scientific K.K.) were added to prepare a culture solution (hereinafter referred to as DMEM culture medium). In the DMEM culture solution (medium), Caco-2 cells were suspended. The suspension was added in 24-well plates (manufactured by TPP) in a ratio of 1.0×10^4 cells/cm^2 to seed the cells. The cells were cultured under 95% air/5% carbon dioxide gas at 37° C. for 8 to 10 days until the cultured cells reached confluency while exchanging the medium at intervals of 2 to 3 days. After the culture supernatant was removed by suction, the amber extract (50% ethanol extract) obtained in Production Example 1 was dissolved in dimethyl sulfoxide (hereinafter referred to as DMSO) so as to obtain a final concentration of 100 and 200 μg/mL. The DMSO solutions were mixed with DMEM culture medium (DMSO final concentration: 0.25%) and each added in an amount of 500 μL. DMSO was added to DMEM culture medium so as to obtain a DMSO final concentration of 0.25% and treated. This was used as a control. […] This was used as a positive control. In addition, the suppression test for sucrase/maltase activity was carried out by using succinic acid in the corresponding amount to that contained in amber extract. More specifically, the content of succinic acid in the amber extract obtained in Production Example 1 was calculated by analysis/preparative high performance liquid chromatographic apparatus and a Fourier transform infrared spectrophotometer. […]
as §3

[1] = Caco-2 cells, succinic acid in the amount corresponding to that contained in the amber extract

Suppression of glucose uptake / permeation in Caco-2 cells (in words) (Caco-2 cells; [1]): not confirmed
Action to suppress maltase activity in Caco-2 cells (in words) (maltase; [1]): not confirmed
activity at 2 µg/mL (sucrase; 2 μg/mL, Caco-2 cells treated 7 days, control = 100, read-out: Sucrase activity (%) (n = 3)): 102 ± 3%
activity at 5 µg/mL (sucrase; 5 μg/mL, Caco-2 cells treated 7 days, control = 100, read-out: Sucrase activity (%) (n = 3)): 95.4 ± 1.4%
activity at 25 µg/mL (sucrase; 25 μg/mL, Caco-2 cells treated 7 days, control = 100, read-out: Sucrase activity (%) (n = 3)): 99.2 ± 2%
Action to suppress sucrase activity in Caco-2 cells (in words) (sucrase; [1]): not confirmed
SMILES: O=C(O)CCC(=O)O [Succinic acid, succinic acid]
Glucose permeability (%) (n = 3) (Caco-2 cells; 0.02 mg/mL): 94.6 ± 1.6%
Glucose permeability (%) (n = 3) (Caco-2 cells; 0.05 mg/mL): 92.8 ± 3.2%
Glucose permeability (%) (n = 3) (Caco-2 cells; 0.1 mg/mL): 95.4 ± 2.5%
Maltase activity (%) (n = 3) (maltase; 2 μg/mL): 108.3 ± 1.5%
Maltase activity (%) (n = 3) (maltase; 5 μg/mL): 99.2 ± 1.3%
Maltase activity (%) (n = 3) (maltase; 25 μg/mL): 100.9 ± 2.1%

SMILES: O=C(CCc1ccc(O)cc1)c1c(O)cc(O)cc1O[C@@H]1O[C@H](CO)[C@@H](O)[C@H](O)[C@H]1O [Phlorizin, Phlorizin n-hydrate]
Glucose permeability (%) (n = 3) (Caco-2 cells; 1 mg/mL, 0.5% glucose): 27.4 ± 1.8 %

activity at 100 µg/mL (sucrase; 100 μg/mL, Caco-2 cells treated 7 days, control = 100, read-out: Sucrase activity (%) (n = 3)): 90.2 ± 4.1%
SMILES: C[C@H]1O[C@H](O[C@H]2[C@H](O)[C@@H](O)[C@@H](O[C@H]3[C@H](O)[C@@H](O)C(O)O[C@@H]3CO)O[C@@H]2CO)[C@H](O)[C@@H](O)[C@@H]1N[C@H]1C=C(CO)[C@@H](O)[C@H](O)[C@H]1O (some centres unmarked) [ACA, Acarbose]
